Measured values published in patent US4954488A, “Method of treating hyperaldosteronism using 17β-cyclopropylaminoandrostene derivatives” (Merrell Dow Pharmaceuticals Inc., priority 1989, dated 1990).

Target: T1, enzymes in the synthesis of aldosterone (Rattus norvegicus, UniProt P30099)
T1 construct: From these animals, adrenal capsule/glomerulosa homogenates were prepared; from tissue; host or cells: adrenal capsule/glomerulosa homogenate of sodium-deficient young male Sprague-Dawley rats
Experiment: Inhibition of aldosterone formation from [3H]-DOC in rat adrenal capsule/glomerulosa homogenates
Type: biochemical, Sprague-Dawley rats
Conditions: pH 7.4, 25° C.; for IC50: 40 minute preincubation data, 10-minute assay, 1 μM [3H]-DOC, read-out: IC50 (half-maximal inhibition of aldosterone formation); for t50 (t1/2 for enzyme inactivation at infinite inhibitor concentration) / Ki: linear regression of t1/2 vs. 1/[I], Kitz-Wilson plots; for Ki: read-out: Ki for time-dependent inhibition
Experimental: Young male Sprague-Dawley rats were maintained on a sodium-deficient diet for about two weeks prior to use. From these animals, adrenal capsule/glomerulosa homogenates were prepared (6 mg/ml) in pH 7.4 assay buffer [MgCl2 8.5 mM, CaCl2 2.7 mM, KCl 3.13 mM, NaCl 7.591 mM, TRIS 50 mM and 0.1% triethylamine] and centrifuged 500xg for 10 minutes.
Assays were conducted in 35 ml glass tubes maintained at 25° C. in a Dubnoff shaker with 95% O2 /5% CO2. The tubes contained the following material: 100 μl of an NADPH^+ generating system, 300 μl of adrenal capsular/glomerulosa cytosol, and 50 μl of test compound or buffer (control). After initial preincubation intervals of 20 minutes, the 10-minute assay was started by the addition of 50 μl of tritium-labelled substrate, i.e., 1 μM [^3 H]-DOC. Reactions were quenched by the addition of 5 ml of ethyl acetate and non-radiolabelled steroids were also added. The samples were extracted twice with 5 ml of ethyl acetate and the solvent evaporated under nitrogen at 30°-40° C.
Residues were redissolved in methanol:water (40:60) with 0.1% triethylamine and high performance liquid chromatography was used to separate products on a C18 reverse phase (5μ ODS-Hypersil) column (4.6×250 mm, Shannon) with a 1 ml/min flow rate using an MeOH:H20 gradient (solvent A 10/90:solvent B 90/10).
Substrate remaining and products formed were monitored by UV absorbance at 246 nm and the amount of steroid compound present was quantified by [^3 H] radioactivity. The concentration of compound to produce half-maximal inhibition (IC50) of aldosterone formation from the 40 minute preincubation data was graphically estimated from a linear-log plot of percent inhibition vs. log of the compound concentration. The Ki for time-dependent inhibition and the t1/2 for enzyme inactivation at infinite inhibitor concentration (t50) was determined by the linear regression analyses of t1/2 vs. 1/[I] data of Kitz-Wilson plots. Using this procedure, the following results were observed: […]

With `CN(C1CC1)[C@H]1CC[C@H]2[C@@H]3CC=C4C[C@@H](O)CC[C@]4(C)[C@H]3CC[C@]12C` [17β-[N-Methyl(cyclopropylamino)]-androst-5-en-3β-ol] the IC50 was 350 nM, the “t50 (t1/2 for enzyme inactivation at infinite inhibitor concentration)” value was 9.0 min and the Ki was 350 nM.
In the case of `CN(C1CC1)[C@H]1CC[C@H]2[C@@H]3CCC4=CC(=O)CC[C@]4(C)[C@H]3CC[C@]12C` [17β-[N-Methyl(cyclopropylamino)]androst-4-en-3-one], the IC50 is reported as 130 nM, the “t50 (t1/2 for enzyme inactivation at infinite inhibitor concentration)” value is reported as 15.4 min and the Ki is reported as 140 nM.
For `C[C@]12CC[C@H]3[C@@H](CC=C4C[C@@H](O)CC[C@@]43C)[C@@H]1CC[C@@H]2NC1CC1` [17β-(Cyclopropylamino)androst-5-en-3β-ol], the IC50 was 1100 nM, the “t50 (t1/2 for enzyme inactivation at infinite inhibitor concentration)” value was 9.7 min and the Ki was 4850 nM.
For `C[C@]12CC[C@H]3[C@@H](CCC4=CC(=O)CC[C@@]43C)[C@@H]1CC[C@@H]2NC1CC1` [17β-(Cyclopropylamino)androst-4-en-3-one], the IC50 was 180 nM.
